Experimental data from patent publication US20020045771A1, “Family of canadensol taxanes, the semi-synthetic preparation and therapeutic use thereof” (Institut National de la Recherche Scientifique, priority 1996, published 2002).
Entries after “also recorded” stand apart in the source; their conditions may differ.

Tests used:
A2780 cells = assay: MTT cytotoxicity assay; assay type: cell-based, human; details: for % (absorbance relative to control) / Abs.: 72 h; for Abs.: absorbance at 570 nm (MTT); for IC50: A2780, 72 h continuous treatment, MTT
Procedure: 1—Cell lines and cell culture. The human ovarian adenocarcinoma cell line A2780 was used to evaluate the antiproliferative activity of taxoids. These cells were grown in either RPMI medium supplemented with 10% fetal bovine serum and penicillin-streptomycin antibiotics. Cells were maintained in culture at 37° C. in an atmosphere of 5% CO2.
2—Cytotoxicity assay. Exponentially growing cells (2-3×10^3 cells/[…]) were seeded in 96-well plates and incubated for 16 h. Cells were then treated continuously with the extracts. 72 h later, cell survival was evaluated by replacing the culture media with […] fresh medium containing 10 mM 4-(2-hydroxyethyl)-1 -piperazineethamesulfonic acid buffer, pH 7.4. and […] of 2.5 mg/ml of 3-(4,5-dimethylthiazo-2-yl)-2,5-diphenyltetrazolium bromide (MTT) in PBS, pH 7.4, were then added. After as 3-4 h of incubation at 37° C., the medium and MTT were removed, and […] of DMSO was added to dissolve the precipitate of reduced MTT, followed by addition of […] glycine buffer (0.1M glycine plus 0.1M NaCl, pH 10.5). The formazan crystals were then dissolved and the absorbance was determined at 570 nm with a microplate reader (BIORAD, model 450). The MTT assay distinguished between viable and non-viable cells on the basis for the requirement of physiologically active mitochondria to metabolize the MTT only in viable cells. The IC50 was calculated as the concentration of drug causing a 50% inhibition in the absorbance compared to cells treated with solvent alone, Table I.

tubulin = assay: In vitro microtubule assay (tubulin polymerisation, absorbance at 350 nm); assay type: biochemical, calf; details: for concentration dependence of tubulin polymerisation: 5 μM and 10 μM (FIG. 2); for enhancement of tubulin polymerisation / antimitotic activity: same concentration (10 μM), FIG. 3; for tubulin polymerisation / antimitotic activity compared with paclitaxel: same concentration (FIGS. 1-4)
[1] = Toxicity in DA3 tumor-bearing BALB/c mice (body weight, mortality); details: given twice at 40 mg/kg, iv
Source text: Animal. Female BALB/c mice (Charles River Inc.) were used to grow DA3 tumors. Mice were maintained at the Lady Davis Institute [LDI] Animal Care Facility.
Treatment was initiated when tumors become palpable. Drug was given twice (day 1 and day 3) by iv. Control animals were given the same volume of saline solution. The dose of each drug was normalized to mouse body weight.
Tumor measurement. animals were examined every day but the tumor growth was monitored every second or third day using calipers. Parameters measured are: tumor measured along the longest axis (length) and the perpendicular shortest axis (width) and the relative tumor volume (in cm^3) was calculated by the formula: [Length (cm)×(width cm)^2]/2. Tumors which reach the limit size permitted by the Canadian regulation on the use of laboratory animals, or showing any apparent distress or discomfort were immediately sacrificed independently of the experimental protocol [usually 2-3 cm^3 but this depend on animal status and the decision is taken by the animal room personnel]. Animals were subjected, on a daily basis, to general examination.

[2] = test system: DA3 mammary adenocarcinoma tumors; assay: In vivo study using DA3 cell model (tumour volume); parameters: species or system mouse
Source text: Origin: The DA3 cell line used in this study was derived from a hyperplastic mammary outgrowth (preneoplastic lesion) treated with 7,12-dimethylbenzanthracene (DMBA). DMBA-treated explant was then transplanted into the mammary glands of a female BALB/c mouse, and the resulting tumor was used to establish the DA3 cell line. DA3 is an immunogenic and non-metastatic mammary adenocarcinoma.
Source: The cell line used in our study was originally obtained from Dr. Medina in 1993. Stocks of these cells were generated and stored during early passages in liquid nitrogen. One vial from this early stock was cultured and cells generated were used to confirm the absence of viral and mycoplasma infections. Cells were then propagated and stocks of these cells were established and stored in liquid nitrogen for further studies with Dup compounds.
Cell culture: DA3 cells were maintained in RPMI 1640 medium supplemented with 1M mercaptoethanol, 1M Hepes buffer solution, […] sodium pyruvate, 200 mM L-glutamine, 10 mM non-essential amino acids, 1M vitamins, 10% fetal bovine serum, 1% penicillin-streptomycin. Cells were maintained at 37° C. under 5% CO2.
Animal. […] Mice were maintained at the Lady Davis Institute [LDI] Animal Care Facility.
Tumor cell inoculation and treatments. After one week acclimatisation, mice were randomized into a group of 5 per cage. Cages were randomly assigned to specific experimental groups. The mice were then labeled by numbers using the “ear punching” method. DA3 cells were transplanted subcutaneously to mice, as a suspension of tumor cells [1×10^6 viable cells per 0.1 ml], in the right flank. All animals were inoculated at the same site.
For tumor induction, cells were grown to 70% confluence in complete medium and then collected using trypsin-EDTA solution [0.05% trypsin, 0.53 mM EDTA-4Na in HBSS Ca^++, Mg^++ and NaHCO3 free]. cells were then centrifuged and washed three times with phosphate buffer solution and resuspended at a dilution of 0.1 to 1×10^6 cells/0.1 ml. […]

[3] = listed as semi-synthetic Canadensol

| SMILES | % (absorbance relative to control) (A2780 cells; 0.2 nM) | Abs. (A2780 cells; 0.2 nM) | % (absorbance relative to control) (A2780 cells; 2 nM) | Abs. (A2780 cells; 2 nM) | % (absorbance relative to control) (A2780 cells; 10 nM) | Abs. (A2780 cells; 10 nM) | % (absorbance relative to control) (A2780 cells; 20 nM) | Abs. (A2780 cells; 20 nM) | % (absorbance relative to control) (A2780 cells; 100 nM) | Abs. (A2780 cells; 100 nM) | % (absorbance relative to control) (A2780 cells; 200 nM) | Abs. (A2780 cells; 200 nM) | IC50 (A2780 cells; Homo sapiens) | other results |
| --- | --- | --- | --- | --- | --- | --- | --- | --- | --- | --- | --- | --- | --- | --- |
| CCCC(=O)N[C@@H](c1ccccc1)[C@@H](O)C(=O)O[C@H]1C[C@@]2(O)[C@@H](OC(=O)c3ccccc3)[C@@H]3[C@]4(OC(C)=O)CO[C@@H]4C[C@H](O)[C@@]3(C)C(=O)[C@H](OC(C)=O)C(=C1C)C2(C)C [taxcultine] | 100.00% | 1.535 | 100.07% | 1.536 | 71.21% | 1.093 | 36.09% | 0.554 | 2.08% | 0.032 | 1.43% | 0.022 |  | IC50 (A2780 cells): 16 nM |
| CC(=O)OC1C(=O)[C@]2(C)C(O)CC3OCC3(OC(C)=O)C2C(OC(=O)c2ccccc2)C2(O)CC(OC(=O)C(O)C(NC(=O)C(C)C)c3ccccc3)C(C)=C1C2(C)C (some centres unmarked) [Canadensol] | 100.00% | 1.598 | 94.12% | 1.504 | 77.97% | 1.246 | 50.81% | 0.812 | 1.63% | 0.026 | 1.13% | 0.018 | 21.3 nM | inhibiting the growth of A2780 (comparison) (A2780 cells; FIGS. 6, 7 and Table I): as active as paclitaxel or taxcultine; concentration dependence of tubulin polymerisation (tubulin): concentration dependent antimitotic effect; concentration dependence of tubulin polymerisation (tubulin; [3]): dose-dependent response; enhancement of tubulin polymerisation / antimitotic activity (tubulin): more effective; enhancement of tubulin polymerisation / antimitotic activity (tubulin; [3]): greater enhancement of tubulin polymerisation than semi-synthetic Taxcultine (ssT) or paclitaxel (P); tubulin polymerisation / antimitotic activity compared with paclitaxel (tubulin): more active than paclitaxel and taxcultine; also recorded: higher antimitotic activity than paclitaxel; tubulin polymerisation / antimitotic activity compared with paclitaxel (tubulin; [3]): higher degree of tubulin polymerisation than Paclitaxel; toxic effect [1]: No toxic effect was observed; period in which antitumor effect was significant ([2]; given twice at 40 mg/kg, iv): significant from day 30 to day 40 of tumor growth; antitumor activity ([2]; given twice at 40 mg/kg, iv, FIG. 9): induce antitumor activity |
| CC(=O)O[C@H]1C(=O)[C@@]2(C)[C@H]([C@H](OC(=O)c3ccccc3)[C@]3(O)C[C@H](OC(=O)[C@H](O)[C@@H](NC(=O)c4ccccc4)c4ccccc4)C(C)=C1C3(C)C)[C@]1(OC(C)=O)CO[C@@H]1C[C@@H]2O [paclitaxel] | 101.54% | 1.455 | 102.16% | 1.464 | 81.09% | 1.162 | 36.43% | 0.522 | 1.47% | 0.021 | 1.40% | 0.02 | 17 nM | antitumor activity ([2]; tolerable doses (20-40 mg/Kg), iv day 1 and day 3): no significant antitumor activity |
